Series [1] is described as follows: Resazurin conversion assay (cytotoxicity). In kind it is cell-based. To be noted: human, HEK293 cells, HEK293, vs DMSO 0.1%, read-out: cell viability. Here is the method: Assessment of cytotoxicity […]
on cell viability assessed by the resazurin conversion assay in HEK293 cells. HEK293 cells were […]
conversion was measured after 4 hours. Results are expressed as % cell viability compared to the solvent control DMSO (0.1%). Data are expressed as means ± SD of three independent experiments performed in quadruplicate. (One-way ANOVA, Dunnett´s test, p<0.01**). […]
resofurin. Conversion of this non-fluorescent agent to resofurin depends on redox equivalents provided by cellular metabolism. Thus, the conversion (fluorescence signal) is direct proportional to the number of viable cells and thus to cell viability. HEK293 cells (ATCC, Manassas, VA) were seeded in 96-well plates at a density of 40,000 cells per well and incubated for 24 hours in DMEM supplemented with 2 mM glutamine, 100 U/ml benzylpenicillin, 100 μg/ml streptomycin, and 10% fetal bovine serum. Next day, cells were incubated with increasing concentrations of the indicated […]
After 24 hours of incubation with the test compounds cells were washed again in PBS and then incubated with 10 μg/mL resazurin […]
solution in PBS. After 4 hours plates were read on a Tecan GeniosPro plate reader using an excitation wavelength of 535 nm and an emission wavelength of 580 nm. […]

In the next series the target is T1, full-length human PPARγ (Homo sapiens, UniProt P37231).
T1 sequence (P37231 1-477 isoform P37231-2): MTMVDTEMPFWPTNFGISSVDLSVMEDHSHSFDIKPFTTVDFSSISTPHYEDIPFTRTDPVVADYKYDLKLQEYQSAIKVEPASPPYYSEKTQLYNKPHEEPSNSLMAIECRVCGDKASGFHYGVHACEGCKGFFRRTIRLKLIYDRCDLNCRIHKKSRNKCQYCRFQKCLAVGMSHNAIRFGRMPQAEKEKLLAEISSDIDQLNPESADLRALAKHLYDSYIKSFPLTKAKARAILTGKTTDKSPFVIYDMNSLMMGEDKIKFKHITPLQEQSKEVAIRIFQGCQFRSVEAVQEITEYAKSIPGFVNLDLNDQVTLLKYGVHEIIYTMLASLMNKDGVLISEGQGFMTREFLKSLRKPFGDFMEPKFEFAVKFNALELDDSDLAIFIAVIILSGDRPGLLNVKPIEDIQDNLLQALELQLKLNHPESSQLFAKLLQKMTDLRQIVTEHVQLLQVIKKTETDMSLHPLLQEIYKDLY
In words: PPARγ-dependent luciferase reporter gene transactivation in HEK293 cells.

In another series the target is T2, purified human PPARγ LBD (Homo sapiens, UniProt P37231).
T2 construct: purchased Invitrogen
T2 sequence (P37231 238-503 limits assumed): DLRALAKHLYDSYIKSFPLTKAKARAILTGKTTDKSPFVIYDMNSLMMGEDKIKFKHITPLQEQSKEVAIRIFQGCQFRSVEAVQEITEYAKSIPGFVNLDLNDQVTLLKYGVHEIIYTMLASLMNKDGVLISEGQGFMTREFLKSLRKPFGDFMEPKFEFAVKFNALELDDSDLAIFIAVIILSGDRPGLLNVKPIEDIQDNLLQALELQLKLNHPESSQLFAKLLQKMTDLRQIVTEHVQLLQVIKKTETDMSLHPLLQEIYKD
In words: LanthaScreen TR-FRET PPARγ competitive binding assay. Here is the method: In this assay a fluorescently labeled ligand (Fluormone, Invitrogen) is displaced upon binding of the tested compound leading to a decrease in the FRET signal. Binding to the receptor was assessed in a concentration-dependent manner. […] Compounds that bind to the PPARγ LBD displace the fluorescently labeled ligand […]. […] Data points are represented as mean ± SEM from four independent experiments performed in duplicate. […] HEK-293 cells were transfected as described in the Methods section and stimulated for 18 h, as indicated. Luciferase activity was normalized to EGFP-derived fluorescence. Results are expressed as fold induction compared with the solvent control (DMSO, 0.1%). EC50 values were calculated using a sigmoidal curve fit with variable slope. […] HEK293 cells were transfected as described in the Methods section, treated as indicated for 18 h and luciferase activity measured as under (A). All data are shown as means ± SD of at least three independent experiments performed in quadruplicate. […] The compounds were dissolved in DMSO (solvent vehicle) and incubated together with the human PPARγ LBD tagged with GST, terbium-labeled anti-GST antibody and fluorescently labeled PPAR ligand (Fluormone™ Pan-PPAR Green). Binding of a ligand results in a fluorescence resonance energy transfer (FRET) after excitation of terbium at 340 nm and in an emission at 520 nm. Test compounds binding to the human PPARγ LBD are competing with the fluorescently labeled ligand and displacing it, resulting in a decrease of the FRET signal. […] All quantifications were performed with a GeniosPro plate reader (Tecan).
To calculate the EC50 values data were curve fitted and non-linear transformed using a sigmoidal dose response with variable slope.

The target in a further series is T3, PPARγ/RXRα heterodimer (Homo sapiens, UniProt P19793+P37231).
T3 construct: transfected with 6 μg of full-length human PPARγ and full-length human RXRα expression plasmid, respectively or both; expressed in transfected cells; host or cells: HEK293
T3 sequence (P37231 1-477 isoform P37231-2): T1 sequence (P37231 1-477 isoform P37231-2)
T3 sequence (P19793 1-462): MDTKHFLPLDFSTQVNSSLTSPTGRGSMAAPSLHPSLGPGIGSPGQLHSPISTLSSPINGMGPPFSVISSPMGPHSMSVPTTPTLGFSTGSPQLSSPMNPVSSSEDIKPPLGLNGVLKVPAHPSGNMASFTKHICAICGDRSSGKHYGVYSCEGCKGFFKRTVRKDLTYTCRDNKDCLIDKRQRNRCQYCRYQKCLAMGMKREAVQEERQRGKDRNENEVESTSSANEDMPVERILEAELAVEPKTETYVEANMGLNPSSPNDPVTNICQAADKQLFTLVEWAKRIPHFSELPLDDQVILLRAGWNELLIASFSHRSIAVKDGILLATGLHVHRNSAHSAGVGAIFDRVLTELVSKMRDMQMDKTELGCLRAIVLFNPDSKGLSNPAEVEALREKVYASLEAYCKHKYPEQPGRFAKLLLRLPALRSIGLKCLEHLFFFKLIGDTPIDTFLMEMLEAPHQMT
The experiment in a line: PPARγ/RXRα heterodimer-induced luciferase reporter transactivation in co-transfected HEK293 cells. The conditions noted are these: 18 h. In kind it is cell-based. From the text: Luciferase activity was normalized to EGFP-derived fluorescence.

Another series deals with T4, full-length human RXRα (Homo sapiens, UniProt P19793).
T4 sequence (P19793 1-462): T3 sequence (P19793 1-462)
The experiment in a line: RXRα-dependent luciferase reporter gene transactivation in HEK293 cells. To be noted: HEK293, 18 h, up to 10 µM.

Another series relates to 3T3-L1 preadipocytes. In words: Adipocyte differentiation in 3T3-L1 pre-adipocytes (Oil Red O). In kind it is cell-based. To be noted: 1–10 µM, 8 days, insulin 1 µg/mL. The method, then:
PPARγ plays a major role in adipocyte differentiation and in the regulation of adipose-related genes that are involved in developing the adipose phenotype. […]
solution in PBS. After 4 hours plates were read on a Tecan GeniosPro plate reader using an excitation wavelength of 535 nm and an emission wavelength of 580 nm.
Adipocyte differentiation in 3T3-L1 cells
Insulin control Rosiglitazone (1 µM) […]
dimer (1). 3T3-L1 cells were incubated in medium containing insulin (1 µg/mL) for 8 days with or […]
µM) was used as positive control. The medium was exchanged every second day. At day 8, cells were fixed in 10% formaldehyde, stained with Oil Red O and photographed (A). Oil Red O was then […]
solubilized and quantified at 550 nm using a plate reader (B). Lipid accumulation is expressed as fold increase compared to the insulin/solvent control (1 µg/mL insulin in 0.1 % DMSO) and is expressed as means ± SD of three independent experiments (One-way ANOVA, Bonfferoni post test, p<0.05 *). […]
Medium was exchanged every second day. After eight days, lipid accumulation (as a measure of adipogenic differentiation) was determined by Oil Red O staining as described previously.5 For this, cells were fixed in 10% formaldehyde for 1 h and stained with Oil Red O for 10 minutes. […]

Consider `C=CCc1ccc(O)c(-c2cc(CC=C)ccc2O)c1` [magnolol, reference compound], for which, in series [1], the viability at 24 h, 10 µM is not below 90% and the viability at 24 h, 30 µM stood at 9.1 ± 9.05%.

The compound `C=CCc1ccc(O)c(-c2cc(CC=CCCCc3cc(O)c(-c4cc(CC=C)ccc4O)cc3CC=C)ccc2O)c1` [magnolol dimer (1)] had an EC50 on full-length human PPARγ of 1.52 µM. For the same compound, the “Emax PPARγ-dependent luciferase transactivation” value on full-length human PPARγ (HEK293, 18 h, Emax values ± SD, results as fold induction vs DMSO) is 4.67 ± 0.26. Also, the “efficacy compared to pioglitazone” value on full-length human PPARγ (HEK293, Emax relative to full agonist pioglitazone) is recorded as “around 62%”. The “fold lower potency compared to magnolol” value on full-length human PPARγ (ratio of EC50 values) was “about 1.5 fold”. Moreover, at purified human PPARγ LBD (competitive displacement of Fluormone Pan-PPAR Green, Cheng-Prusoff, four independent experiments in duplicate), the affinity corresponds to a Ki of 0.00503 µM. Moreover, on purified human PPARγ LBD (ratio of Ki values), the “fold higher affinity to human PPARγ LBD compared to magnolol” value is listed as “more than 12 fold” and the “fold higher affinity to human PPARγ LBD compared to pioglitazone” value is given as “more than 16 fold”. Further, at PPARγ/RXRα heterodimer (10 µM compound plus full RXR agonist bexarotene, HEK293 co-transfected), the “fold activation of PPARγ/RXRα heterodimer, co-treatment with bexarotene” value is 13.20 ± 3.98 fold. Besides, on PPARγ/RXRα heterodimer (10 µM, HEK293 co-transfected with PPARγ and RXRα, vs DMSO 0.2%), the “fold activation of PPARγ/RXRα heterodimer” value turned out to be 3.82 ± 1.22 fold. Besides, the “RXRα-dependent luciferase gene expression (result in words)” value at full-length human RXRα is recorded as “does not activate RXRα-dependent luciferase gene expression”. Also, on full-length human RXRα (listed as the dimer), the “RXRα-dependent luciferase gene expression (result in words)” value is recorded as “did not transactivate RXRα-dependent luciferase gene expression”. Moreover, the “adipocyte differentiation (result in words)” value in the series on 3T3-L1 preadipocytes is “induces adipocyte differentiation”. Also, in series [1], the viability at 24 h, 10 µM is not below 90% and the viability at 24 h, 30 µM is 22.7 ± 5.35%.

Values taken from paper PMC5651862 (Scientific Reports, 2017).
